The source made the active and inactive calls. The rule behind the calls is not given here.
What was measured:
Staphylococcus aureus [1] = experiment: Antibacterial activity against methicillin resistant Staphylococcus aureus ATCC515992 assessed as reduction in microbial growth after 16 to 18 hrs by microbroth dilution method; type: functional; conditions: time 16-18 hrs
Enterococcus faecalis = experiment: Antibacterial activity against Enterococcus faecalis ATCC29212 assessed as reduction in microbial growth after 16 to 18 hrs by microbroth dilution method; type: functional; conditions: ATCC 29212, time 16-18 hrs
Staphylococcus aureus [2] = experiment: Antibacterial activity against methicillin resistant Staphylococcus aureus ATCC49800 assessed as reduction in microbial growth after 16 to 18 hrs by microbroth dilution method; type: functional; conditions: time 16-18 hrs
Staphylococcus aureus [3] = experiment: Antibacterial activity against methicillin resistant Staphylococcus aureus ATCC 43300 assessed as reduction in microbial growth after 16 to 18 hrs by microbroth dilution method; type: functional; conditions: time 16-18 hrs
Staphylococcus aureus [4] = experiment: Antibacterial activity against methicillin resistant Staphylococcus aureus ATCC 52056 assessed as reduction in microbial growth after 16 to 18 hrs by microbroth dilution method; type: functional; conditions: time 16-18 hrs
Staphylococcus aureus [5] = experiment: Antibacterial activity against methicillin resistant Staphylococcus aureus ATCC48073 assessed as reduction in microbial growth after 16 to 18 hrs by microbroth dilution method; type: functional; conditions: time 16-18 hrs
[6] = (§1) Cytotoxicity against mouse RAW264.7 cells assessed as cell viability at 10 ug/ml measured after 24 hrs by MTT assay; type: cell-based; conditions: RAW264.7 cells, at 10 µg/mL, read-out: Activity
Staphylococcus aureus [7] = experiment: Antibacterial activity against methicillin resistant Staphylococcus aureus ATCC 62202 assessed as reduction in microbial growth after 16 to 18 hrs by microbroth dilution method; type: functional; conditions: time 16-18 hrs
L02 = experiment: Cytotoxicity against human L02 cells assessed as cell viability at 10 ug/ml measured after 24 hrs by MTT assay; type: cell-based; conditions: l02, 24 h, dose 10 µg/ml
Staphylococcus aureus [8] = experiment: Antibacterial activity against methicillin resistant Staphylococcus aureus ATCC49025 assessed as reduction in microbial growth after 16 to 18 hrs by microbroth dilution method; type: functional; conditions: time 16-18 hrs
Staphylococcus aureus [9] = experiment: Antibacterial activity against methicillin resistant Staphylococcus aureus ATCC49008 assessed as reduction in microbial growth after 16 to 18 hrs by microbroth dilution method; type: functional; conditions: time 16-18 hrs
Escherichia coli = experiment: Antibacterial activity against Escherichia coli ATCC25922 assessed as reduction in microbial growth after 16 to 18 hrs by microbroth dilution method; type: functional; conditions: ATCC 25922, time 16-18 hrs
Staphylococcus aureus [10] = experiment: Antibacterial activity against methicillin resistant Staphylococcus aureus ATCC513045 assessed as reduction in microbial growth after 16 to 18 hrs by microbroth dilution method; type: functional; conditions: time 16-18 hrs
Staphylococcus aureus [11] = experiment: Antibacterial activity against Staphylococcus aureus ATCC 25923 assessed as reduction in microbial growth after 16 to 18 hrs by microbroth dilution method; type: functional; conditions: time 16-18 hrs
Staphylococcus aureus [12] = experiment: Antibacterial activity against methicillin resistant Staphylococcus aureus ATCC48706 assessed as reduction in microbial growth after 16 to 18 hrs by microbroth dilution method; type: functional; conditions: time 16-18 hrs
Staphylococcus aureus [13] = experiment: Antibacterial activity against methicillin resistant Staphylococcus aureus ATCC48966 assessed as reduction in microbial growth after 16 to 18 hrs by microbroth dilution method; type: functional; conditions: time 16-18 hrs
Pseudomonas aeruginosa = experiment: Antibacterial activity against Pseudomonas aeruginosa ATCC27853 assessed as reduction in microbial growth after 16 to 18 hrs by microbroth dilution method; type: functional; conditions: time 16-18 hrs
Staphylococcus aureus [14] = experiment: Antibacterial activity against methicillin resistant Staphylococcus aureus ATCC 43300 persisters assessed as reduction in colony formation at 40 ug/ml incubated for 8 hrs by colony counting method; type: functional, organism-based; conditions: dose 40.0 µg/ml
[15] = Toxicity in BALB/c mouse infected with methicillin-resistant Staphylococcus aureus ATCC 43300 assessed as damage in kidney at 50 to 100 mg/kg, sc administered every 24 hrs for 4 days by H&E staining based light microscopic analysis; type: organism-based; conditions: in vivo, dose 50-100 mg/kg
[16] = Toxicity in BALB/c mouse infected with methicillin-resistant Staphylococcus aureus ATCC 43300 assessed as damage in spleen at 50 to 100 mg/kg, sc administered every 24 hrs for 4 days by H&E staining based light microscopic analysis; type: organism-based; conditions: in vivo, dose 50-100 mg/kg
[17] = Toxicity in BALB/c mouse infected with methicillin-resistant Staphylococcus aureus ATCC 43300 assessed as damage in lung at 50 to 100 mg/kg, sc administered every 24 hrs for 4 days by H&E staining based light microscopic analysis; type: organism-based; conditions: in vivo, dose 50-100 mg/kg
[18] = Toxicity in BALB/c mouse infected with methicillin-resistant Staphylococcus aureus ATCC 43300 assessed as damage in liver at 50 to 100 mg/kg, sc administered every 24 hrs for 4 days by H&E staining based light microscopic analysis; type: organism-based; conditions: in vivo, dose 50-100 mg/kg
[19] = Toxicity in BALB/c mouse infected with methicillin-resistant Staphylococcus aureus ATCC 43300 assessed as damage in heart at 50 to 100 mg/kg, sc administered every 24 hrs for 4 days by H&E staining based light microscopic analysis; type: organism-based; conditions: in vivo, dose 50-100 mg/kg
RAW264.7 = experiment: as §1; type: cell-based; conditions: raw264.7, 24 h, dose 10 µg/ml

Row | SMILES | MIC (Staphylococcus aureus [1]) | MIC (Enterococcus faecalis) | MIC (Staphylococcus aureus [2]) | MIC (Staphylococcus aureus [3]) | MIC (Staphylococcus aureus [4]) | MIC (Staphylococcus aureus [5]) | MIC (Staphylococcus aureus [7]) | Activity (L02) | MIC (Staphylococcus aureus [8]) | MIC (Staphylococcus aureus [9]) | MIC (Escherichia coli) | MIC (Staphylococcus aureus [10]) | MIC (Staphylococcus aureus [11]) | MIC (Staphylococcus aureus [12]) | MIC (Staphylococcus aureus [13]) | MIC (Pseudomonas aeruginosa) | Activity (RAW264.7) | other results
1 | CC(C)=CCc1c(OC2CCOCC2)cc(/C=C/c2ccc(F)cc2)c(C(=O)O)c1O | 32 µg/mL | > 32 µg/mL | 16 µg/mL | 1 µg/mL | 8 µg/mL | 16 µg/mL | 32 µg/mL | Toxic | 16 µg/mL | 16 µg/mL | > 32 µg/mL | 16 µg/mL | 16 µg/mL | 16 µg/mL | 16 µg/mL | > 32 µg/mL |  | viability at 24 h, 10 ug/ml [6]: > 60%
2 | CCCCCCCCCC(=O)N[C@@H](Cc1c[nH]c2ccccc12)C(=O)N[C@H](CC(N)=O)C(=O)N[C@@H](CC(=O)O)C(=O)N[C@@H]1C(=O)NCC(=O)N[C@@H](CCCN)C(=O)N[C@@H](CC(=O)O)C(=O)N[C@H](C)C(=O)N[C@@H](CC(=O)O)C(=O)NCC(=O)N[C@H](CO)C(=O)N[C@@H]([C@H](C)CC(=O)O)C(=O)N[C@@H](CC(=O)c2ccccc2N)C(=O)O[C@@H]1C |  |  |  |  |  |  |  |  |  |  |  |  |  |  |  |  |  | Activity (Staphylococcus aureus [14]): inactive
3 | O=C(O)c1cn(C2CC2)c2cc(N3CCNCC3)c(F)cc2c1=O |  |  |  |  |  |  |  |  |  |  |  |  |  |  |  |  |  | Activity (Staphylococcus aureus [14]): inactive
4 | CO[C@H]1/C=C/O[C@@]2(C)Oc3c(C)c(O)c4c(O)c(c(/C=N/N5CCN(C)CC5)c(O)c4c3C2=O)NC(=O)/C(C)=C\C=C\[C@H](C)[C@H](O)[C@@H](C)[C@@H](O)[C@@H](C)[C@H](OC(C)=O)[C@@H]1C |  |  |  |  |  |  |  |  |  |  |  |  |  |  |  |  |  | Activity (Staphylococcus aureus [14]): inactive
5 | CN[C@H](CC(C)C)C(=O)N[C@H]1C(=O)N[C@@H](CC(N)=O)C(=O)N[C@H]2C(=O)N[C@H]3C(=O)N[C@H](C(=O)N[C@H](C(=O)O)c4cc(O)cc(O)c4-c4cc3ccc4O)[C@H](O)c3ccc(c(Cl)c3)Oc3cc2cc(c3O[C@@H]2O[C@H](CO)[C@@H](O)[C@H](O)[C@H]2O[C@H]2C[C@](C)(N)[C@H](O)[C@H](C)O2)Oc2ccc(cc2Cl)[C@H]1O [VANCOMYCIN] |  |  |  |  |  |  |  |  |  |  |  |  |  |  |  |  |  | Activity [15]: Non-Toxic; Activity [16]: Non-Toxic; Activity [17]: Non-Toxic; Activity [18]: Non-Toxic; Activity [19]: Non-Toxic
6 | CC(C)=CCc1c(OC2CCCC2)cc(/C=C/c2ccc(C(F)(F)F)cc2)c(C(=O)O)c1O | 2 µg/mL | > 32 µg/mL | 2 µg/mL | 2 µg/mL | 2 µg/mL | 2 µg/mL | 2 µg/mL | Toxic | 2 µg/mL | 2 µg/mL | > 32 µg/mL | 2 µg/mL | 2 µg/mL | 2 µg/mL | 2 µg/mL | > 32 µg/mL | Toxic | 
7 | CC(C)=CCc1c(OCCCC(F)(F)F)cc(/C=C/c2ccc(F)cc2)c(C(=O)O)c1O | 4 µg/mL | > 32 µg/mL | 4 µg/mL | 4 µg/mL | 4 µg/mL | 4 µg/mL | 4 µg/mL | Toxic | 4 µg/mL | 4 µg/mL | > 32 µg/mL | 4 µg/mL | 4 µg/mL | 4 µg/mL | 4 µg/mL | > 32 µg/mL | Toxic | 
8 | CCCC(CC)Oc1cc(/C=C/c2ccc(F)cc2)c(C(=O)O)c(O)c1CC=C(C)C (configuration not stated) | 2 µg/mL | > 32 µg/mL | 2 µg/mL | 1 µg/mL | 2 µg/mL | 4 µg/mL | 2 µg/mL | Toxic | 2 µg/mL | 2 µg/mL | > 32 µg/mL | 2 µg/mL | 2 µg/mL | 4 µg/mL | 2 µg/mL | > 32 µg/mL | Toxic | 
9 | CC(C)=CCc1c(OC2CCC2)cc(/C=C/c2ccc(C(F)(F)F)cc2)c(C(=O)O)c1O | 2 µg/mL | > 32 µg/mL | 2 µg/mL | 1 µg/mL | 1 µg/mL | 2 µg/mL | 1 µg/mL | Toxic | 1 µg/mL | 1 µg/mL | > 32 µg/mL | 1 µg/mL | 2 µg/mL | 1 µg/mL | 1 µg/mL | > 32 µg/mL | Toxic | 
10 | CC(C)=CCc1c(OC2CCCCC2)cc(/C=C/c2ccc(C(F)(F)F)cc2)c(C(=O)O)c1O | 2 µg/mL | > 32 µg/mL | 4 µg/mL | 1 µg/mL | 2 µg/mL | 4 µg/mL | 2 µg/mL | Toxic | 4 µg/mL | 4 µg/mL | > 32 µg/mL | 2 µg/mL | 2 µg/mL | 4 µg/mL | 4 µg/mL | > 32 µg/mL | Toxic | 
11 | CC(C)=CCc1c(OCCC(F)(F)F)cc(/C=C/c2ccc(F)cc2)c(C(=O)O)c1O | 4 µg/mL | > 32 µg/mL | 4 µg/mL | 4 µg/mL | 4 µg/mL | 4 µg/mL | 4 µg/mL | Toxic | 4 µg/mL | 4 µg/mL | > 32 µg/mL | 2 µg/mL | 4 µg/mL | 4 µg/mL | 4 µg/mL | > 32 µg/mL | Toxic | 

From ChEMBL document CHEMBL4828717, “Synthetic cajaninstilbene acid derivatives eradicate methicillin-resistant Staphylococcus aureus persisters and biofilms” (Eur J Med Chem, 2021)
